From US20240246946A1, “MODULATORS OF TREX1” (Constellation Pharmaceuticals, Inc., priority 2021, published 2024)
pIC50: −log10 of the molar value.

Columns and labels:
full length mouse TREX1 = molecular target: T1, full length mouse TREX1 (Mus musculus, UniProt Q91XB0); test: mTREX1 Biochemical Assay (fluorescence, dsDNA substrate degradation); conditions: biochemical, read-out: mTREX1 IC50
T1 construct: N-terminally His-Tev tagged full length mouse TREX1; made in house; host or cells: E. coli
T1 sequence (Q91XB0 1-314): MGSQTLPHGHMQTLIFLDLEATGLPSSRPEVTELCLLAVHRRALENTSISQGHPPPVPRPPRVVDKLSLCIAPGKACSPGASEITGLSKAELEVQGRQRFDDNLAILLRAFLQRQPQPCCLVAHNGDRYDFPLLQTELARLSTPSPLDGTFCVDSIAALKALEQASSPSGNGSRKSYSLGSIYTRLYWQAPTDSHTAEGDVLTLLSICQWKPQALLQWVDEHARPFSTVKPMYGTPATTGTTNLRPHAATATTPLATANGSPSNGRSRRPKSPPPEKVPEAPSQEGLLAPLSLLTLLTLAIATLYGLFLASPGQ
Summary of the method: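 Reaction run 18 h at 25° C. with 60 nM TEX615/quencher-labelled dsDNA and 6 pM mouse TREX1 in Tris buffer (pH 7.4, 5 mM MgCl2, 1.0% DMSO), enzyme having sat 4 h with compound across 10 concentrations. EDTA quench; substrate degradation measured as fluorescence increase.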

full length human TREX1 = molecular target: T2, full length human TREX1 (Homo sapiens, UniProt Q9NSU2); test: hTREX1 Biochemical Assay (fluorescence, dsDNA substrate degradation); conditions: biochemical, read-out: hTREX1 IC50
T2 construct: N-terminally His-Tev tagged full length human TREX1; made in house; host or cells: E. coli
T2 sequence (Q9NSU2 1-314): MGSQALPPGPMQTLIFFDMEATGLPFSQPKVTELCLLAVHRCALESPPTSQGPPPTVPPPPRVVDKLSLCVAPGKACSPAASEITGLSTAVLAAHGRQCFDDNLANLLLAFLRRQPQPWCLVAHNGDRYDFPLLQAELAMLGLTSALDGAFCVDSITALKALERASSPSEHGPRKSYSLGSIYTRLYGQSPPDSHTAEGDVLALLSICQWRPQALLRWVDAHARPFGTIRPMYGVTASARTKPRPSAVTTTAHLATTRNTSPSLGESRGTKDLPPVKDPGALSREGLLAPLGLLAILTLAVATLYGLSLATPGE
Summary of the method: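 Fluorescence rises as enzyme degrades a quenched TEX615-labelled dsDNA substrate (60 nM) in 50 mM Tris, 150 mM NaCl, 5 mM MgCl2, pH 7.4. Full-length His-Tev-tagged human TREX1, 4 pM, sits with compound 4 hours at 25° C before substrate; reaction 18 hours, stopped with EDTA.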

SMILES	pIC50 (full length mouse TREX1)	pIC50 (full length human TREX1)
CC(c1nc(C(=O)Nc2cnoc2)c(O)c(=O)n1C)C(c1cnn(C)c1)c1cc(F)ccc1C#N (single isomer, unassigned) [Example 14 D1E2]	8.00 to 9.00	> 9.00
Cc1cncc(C(c2ccccc2C#N)C(C)c2nc(C(=O)Nc3cnoc3)c(O)c(=O)n2C)n1 (single isomer, unassigned) [Example 53 D1E2]	8.00 to 9.00	> 9.00
CC(c1nc(C(=O)Nc2cnoc2)c(O)c(=O)n1C)C(c1cnn(C)c1)c1cc(Cl)ccc1C#N (single isomer, unassigned) [Example 26 D1E2]	8.00 to 9.00	> 9.00
CCn1cc(C(c2cc(F)ccc2C#N)C(C)c2nc(C(=O)Nc3cnoc3)c(O)c(=O)n2C)cn1 (single isomer, unassigned) [Example 17 D1E2]	> 9.00	> 9.00
CC(c1nc(C(=O)Nc2cnoc2)c(O)c(=O)n1C)C(c1cnn(CC(F)(F)F)c1)c1ccccc1C#N (single isomer, unassigned) [Example 22 D1E1]	8.00 to 9.00	> 9.00
CC(c1nc(C(=O)Nc2cnoc2)c(O)c(=O)n1C)C(c1cnn(CC2CC2)c1)c1ccccc1C#N (single isomer, unassigned) [Example 23 D1E2]	8.00 to 9.00	> 9.00
C[C@H](c1nc(C(=O)Nc2cnoc2)c(O)c(=O)n1C)[C@@H](c1cc(F)ccc1C#N)c1cn(C)nc1C#N [Example 59 D1E2]	> 9.00	> 9.00
CC(c1nc(C(=O)Nc2cnoc2)c(O)c(=O)n1C)C(c1cnn(C)c1)c1ccccc1Cl (single isomer, unassigned) [Example 77 D1E1]	8.00 to 9.00	> 9.00
CC(c1nc(C(=O)Nc2cnoc2)c(O)c(=O)n1C)C(c1cnn(C(F)F)c1)c1ccccc1C#N (single isomer, unassigned) [Example 38 D1E1]	> 9.00	> 9.00
CCn1cc(C(c2ccc(F)cc2C#N)C(C)c2nc(C(=O)Nc3cnoc3)c(O)c(=O)n2C)cn1 (single isomer, unassigned) [Example 16 D1E1]	> 9.00	> 9.00
Cc1nn(C)cc1C(c1cc(F)ccc1C#N)C(C)c1nc(C(=O)Nc2cnoc2)c(O)c(=O)n1C (single isomer, unassigned) [Example 57 D1E2]	8.00 to 9.00	> 9.00
CC(c1nc(C(=O)Nc2cnoc2)c(O)c(=O)n1C)C(c1ccccc1C#N)c1cn(C)nc1C#N (single isomer, unassigned) [Example 10 D1E1]	> 9.00	> 9.00
CC(c1nc(C(=O)Nc2cnoc2)c(O)c(=O)n1C)C(c1cnn(C)c1)c1ccccc1C#N (single isomer, unassigned) [Example 2 D1E1]	8.00 to 9.00	> 9.00
CCn1cc(C(c2ccccc2C#N)C(C)c2nc(C(=O)Nc3cnoc3)c(O)c(=O)n2C)cn1 (single isomer, unassigned) [Example 13 D1E1]	> 9.00	> 9.00

Further lines, results first:

pIC50 (full length mouse TREX1)	pIC50 (full length human TREX1)	SMILES
8.00 to 9.00	> 9.00	CCn1c(C(C)C(c2cnn(C)c2)c2ccccc2C#N)nc(C(=O)Nc2cnoc2)c(O)c1=O (single isomer, unassigned) [Example 149 D1E2]
8.00 to 9.00	> 9.00	Cc1ncc(C(c2ccccc2Cl)C(C)c2nc(C(=O)Nc3cnoc3)c(O)c(=O)n2C)nc1C (single isomer, unassigned) [Example 125 D1E2]
> 9.00	> 9.00	Cc1nc(C)c(C(c2ccccc2C#N)C(C)c2nc(C(=O)Nc3cnoc3)c(O)c(=O)n2C)nc1C (single isomer, unassigned) [Example 122 D1E1]
> 9.00	> 9.00	CC(c1nc(C(=O)Nc2cnoc2)c(O)c(=O)n1C)C(c1ccccc1C#N)c1cn(C)nc1F (single isomer, unassigned) [Example 91 D1E1]
8.00 to 9.00	> 9.00	Cc1ncc(C(c2ccccc2C#N)C(C)c2nc(C(=O)Nc3cnoc3)c(O)c(=O)n2C)nc1C (single isomer, unassigned) [Example 81 D1E2]
8.00 to 9.00	> 9.00	Cc1cc(C(c2cc(F)ccc2C#N)C(C)c2nc(C(=O)Nc3cnoc3)c(O)c(=O)n2C)n(C)n1 (single isomer, unassigned) [Example 111 D1E2]
8.00 to 9.00	> 9.00	Cc1cnc(C(c2cc(F)ccc2C#N)C(C)c2nc(C(=O)Nc3cnoc3)c(O)c(=O)n2C)cn1 (single isomer, unassigned) [Example 115 D1E2]
8.00 to 9.00	> 9.00	Cc1ncc(C(c2cc(F)ccc2C#N)C(C)c2nc(C(=O)Nc3cnoc3)c(O)c(=O)n2C)nc1C (single isomer, unassigned) [Example 124 D1E2]
8.00 to 9.00	> 9.00	CC(c1nc(C(=O)Nc2cnoc2)c(O)c(=O)n1C)C(c1cnn(C(C)C)c1)c1ccccc1C#N (single isomer, unassigned) [Example 105 D1E2]
8.00 to 9.00	> 9.00	Cc1nn(C)c(C)c1C(c1ccccc1C#N)C(C)c1nc(C(=O)Nc2cnoc2)c(O)c(=O)n1C (single isomer, unassigned) [Example 78 D1E1]
